According to patent US10828368B2, “Therapeutic treatments using centhaquin” (MIDWESTERN UNIVERSITY, priority 2009, dated 2020):
Entries after “also recorded” stand apart in the source; their conditions may differ. Structures can show the parent of a compound that is named as a salt. Where two headings read alike, the source gives them in different places. Values belong to the molecule of their own block, whether it stands above or below them. Ends that are not written are not given here.

Tests used:
[1] = system: urethane anaesthetized rats; assay: Cardiovascular response (MAP, PP, HR) of drugs in urethane anaesthetized rats; type: in vivo, rat; details: for fall in MAP / decrease in PP: compared to baseline; for decrease in HR after centhaquin in antagonist treated rats, compared to baseline / decrease in MAP after centhaquin in antagonist treated rats, compared to baseline / decrease in PP after centhaquin in antagonist treated rats, compared to baseline / potentiation of centhaquin hypotensive effect compared to vehicle treated rats / potentiation of centhaquin-induced decrease in HR (bradycardia) compared to vehicle treated rats: TAK-044 1 mg/kg or BMS-182874 9 mg/kg + centhaquin 0.15 mg/kg; for maximum decrease in PP after clonidine in antagonist treated rats, compared to baseline / reduction in MAP after clonidine in antagonist treated rats, compared with the baseline: TAK-044 1 mg/kg or BMS-182874 9 mg/kg + clonidine 10 μg/kg; for change in MAP, PP and HR, antagonist alone: TAK-044 1 mg/kg or BMS-182874 9 mg/kg alone; for Bradycardia, Centhaquin, percent change / Decrease in pulse pressure, Centhaquin, percent change / Hypotension, Centhaquin, percent change: centhaquin 0.33 mg/kg [sic], compared to centhaquin response in control rats
Text: Rats were anaesthetized with urethane (1.5 g/kg i.p.) and prepared for the determination of hemodynamic parameters (Gulati and Srimal, 1993; Gulati et al., 1997b). The anesthetized rats were shaved and immobilized to prepare for cannulation. A 2-3 cm incision was made above the femoral vein and artery, and the vessels were dissected and cleaned. The left femoral vein was cannulated (PE-50 tubing, Clay Adams, Parsipanny, N.J.) and secured for drug administration. An ultra-miniature Pressure transducer SPR-320 (2F Polyurethane), with a single pressure sensor side mounted at the tip (Millar Instruments, Houston, Tex.), was inserted in the left femoral artery to acquire the hemodynamic signals. Pressure transducer was connected to bridge amplifier (ML221 Bridge Amp; AD Instruments, Mountain View, Calif., USA) with Viking connector (AEC-10C) and the signals were continuously acquired at a sampling rate of 1000 S^−1 using Millar PowerLab 16/30 data acquisition system (AD Instruments, Mountain View, Calif., USA). MAP, HR, and PP were determined and analyzed with LabChart-5.00 software program (Millar Instruments). After the experiment was completed, the animals were euthanized with higher dose of urethane (3 gm/kg).
The animals were allowed to stabilize for at least 20 min following surgical procedures.
In the above studies, all drugs were injected through the left femoral vein and changes in MAP, HR, and PP after clonidine and centhaquin injection were recorded for 1 hour using Millar PowerLab 16/30 data acquisition system.

[2] = Arterial blood gas analysis before and one hour after drug; type: in vivo, rat
Text: Arterial blood pH, pO2, pCO2, Na^+, K^+, and lactate were monitored prior to and after drug administration. Blood samples were drawn from the arterial cannula using blood gas sampling syringes (Innovative Medical Technologies, Inc. Leawood, Kans.) and analyzed using a GEM Premier 3000 unit (Instrument Laboratory, Lexington, Mass.).
Blood samples were drawn from the arterial cannula using blood gas sampling syringes (Innovative Medical Technologies, Inc. Leawood, Kans.) and analyzed using a GEM Premier 3000 unit (Instrument Laboratory, Lexington, Mass.).

[3] = system: rat abdominal aortic ring; assay: Clonidine response on the abdominal aortic ring; details: for EC50: Rattus norvegicus, read-out: ED50 value, aortic ring contraction
Procedure: The abdominal aorta was isolated and dissected out from urethane (1.5 g·kg^−1 i.p.) anesthetized rats and was transferred to Krebs bicarbonate buffer pH 7.4 (composition in mM, NaCl, 112.0; KCl, 4.7; KH2PO4, 1.2; MgSO4, 1.2; CaCl2, 2.5; NaHCO3, 25.0; glucose, 11.0) with continuous supply of 95% O2 and 5% CO2 at 37±1° C. The tissue was cut into ring segments (3 mm in length) and mounted in organ baths using 10 mm Radnoti glass ring supports. Extra care was taken while cutting and mounting the ring segment to prevent loss of endothelial layer. Tissue was equilibrated for 45 min by applying 2 g of tension with regular buffer change after every 15 min. Vessels were pre-contracted with 100 mM KCl to determine the viability. Clonidine-induced contractions of aortic ring were measured using Radnoti 8 unit tissue bath (Radnoti Glass Technology, Monrovia, Calif.) and the force transducer coupled with a Grass P7D polygraph. The dose response was recorded for 0.25, 0.5, 1, 2, 4, 6, 8, and 10 μM of clonidine with or without ET-1 (4 nM) treatment and ED50 value was calculated. Experiments were performed in Group 1: Vehicle+Clonidine (0.25 to 10 μM); and Group 2: ET-1 (4 nM)+Clonidine (0.25 to 10 μM) using (n=6) rats in each group.

rats = details: clonidine given intravenously in cervical sectioned rats; cited from earlier work
[4] = system: α-adrenergic receptors in the hypothalamus and medulla; details: chronic administration in rats; with hypotension and bradycardia; cited from earlier work
[5] = system: 5-HT1 receptors in the medulla; details: cited from earlier work
α2-adrenergic receptors = details: higher for α2; cited from earlier work
[6] = one hour after clonidine 90 μg/kg or centhaquin 0.45 mg/kg
[7] = ET-1 100 ng/kg + clonidine 10 μg/kg, compared to vehicle treated rats receiving clonidine
[8] = ET-1 300 ng/kg + clonidine 10 μg/kg, compared to vehicle treated rats receiving clonidine
[9] = ET-1 900 ng/kg + centhaquin 0.15 mg/kg, compared to vehicle treated rats receiving centhaquin
[10] = ET-1 900 ng/kg + clonidine 10 μg/kg, compared to vehicle treated rats receiving clonidine
[11] = ET-1 300 ng/kg + prazosin 0.1 mg/kg + centhaquin 0.15 mg/kg

changes in arterial blood pH, pO2, pCO2, Na^+, K^+, lactate and hematocrit ([2]; before versus one hour after clonidine 90 μg/kg or centhaquin 0.45 mg/kg): no significant changes
Hct [2, 6]: 50 ± 4%
K^+ [2, 6]: 4.3 ± 0.6 mmol/L
Na^+ [2, 6]: 139 ± 2 mmol/L
arterial blood pH [2, 6]: 7.28 ± 0.03
pCO2 [2, 6]: 46 ± 4 mmHg
pO2 [2, 6]: 100 ± 14 mmHg
EC50 ([3]; ET-1 (4 nM) treated aorta): 1810 ± 40 nM
EC50 ([3]; vehicle treated aorta): 2640 ± 20 nM
Molecule: Clc1cccc(Cl)c1NC1=NCCN1 [Clonidine, N-(2,6-dichlorophenyl)-4,5-dihydro-1H-imidazol-2-amine]
decrease in HR ([1]; clonidine 10 μg/kg): 20.84%
fall in MAP ([1]; clonidine 10 μg/kg i.v.): 24.02%
decrease in PP ([1]; clonidine 10 μg/kg): 33.81%
decrease in HR ([1]; clonidine 30 μg/kg): 23.18%
fall in MAP ([1]; clonidine 30 μg/kg i.v.): 26.15%
decrease in PP ([1]; clonidine 30 μg/kg): 36.39%
decrease in HR ([1]; clonidine 90 μg/kg): 23.19%
fall in MAP ([1]; clonidine 90 μg/kg i.v.): 19.48%
decrease in PP ([1]; clonidine 90 μg/kg): 34.27%
dose-response effect on MAP, PP and HR ([1]; clonidine 10, 30, 90 μg/kg i.v., centhaquin 0.05, 0.15, 0.45 mg/kg i.v.): dose-dependent hypotension and bradycardia; also recorded: dose-dependent fall in mean arterial pressure (MAP), pulse pressure (PP), and a decrease in heart rate (HR)
percent contraction of aorta ([3]; clonidine 2 μM, ET-1 (4 nM) treated aorta): 75.95±1.36%
percent contraction of aorta ([3]; clonidine 2 μM, vehicle treated aorta): 51.017±1.70%
percent contraction of aorta ([3]; clonidine 4 μM, ET-1 treated aorta): 96.83±0.54%
percent contraction of aorta ([3]; clonidine 4 μM, vehicle treated aorta): 80.27±2.48%
contraction in rat abdominal aortic ring ([3]; clonidine 0.25-10 μM): dose-dependent (0.25-10 μM) contraction
effect on blood pressure and heart rate (rats): did not produce any effect
effect of chronic administration on α-adrenergic receptors in the hypothalamus and medulla [4]: up-regulation
effect of repeated administration on 5-HT1 receptors in the medulla [5]: up-regulation
binding affinity for α2-adrenergic receptors relative to α1-adrenoreceptors (α2-adrenergic receptors): approximately 10 fold

Molecule: ET-1: endogenous 21-residue peptide endothelin isopeptide, used as ET agonist (CSCSSLMDKECVYFCHLDIIW; not fully specified; ends and bridges not checked; UniProt P05305 53-73, looked up)
decrease in HR produced by centhaquin, ET-1 versus vehicle treated rats ([1]; ET-1 100 ng/kg + centhaquin 0.15 mg/kg): similar
attenuation of clonidine induced fall in PP ([1]; ET-1 100 ng/kg + clonidine 10 μg/kg): 33.66%
attenuation of clonidine-induced decrease in HR [1, 7]: 18.01%
attenuation of clonidine-induced fall in MAP [1, 7]: 27.63%
effect on centhaquin-induced decrease in HR ([1]; ET-1 300 ng/kg + centhaquin 0.15 mg/kg): significantly attenuated
attenuation of clonidine-induced decrease in HR [1, 8]: 21.00%
attenuation of clonidine-induced decrease in MAP [1, 8]: 27.41%
attenuation of centhaquin-induced decrease in HR (increase in HR compared to untreated rats) [1, 9]: 21.44%
attenuation of centhaquin-induced decrease in MAP (increase in MAP compared to untreated rats) [1, 9]: 33.48%
attenuation of clonidine-induced decrease in HR (increase in HR compared to untreated rats) [1, 10]: 37.42%
attenuation of clonidine-induced decrease in MAP (increase in MAP compared to untreated rats) [1, 10]: 42.58%
change in HR compared to baseline, ET-1 alone ([1]; ET-1 100, 300 and 900 ng/kg): no change
change in MAP compared to baseline, ET-1 alone ([1]; ET-1 100, 300 and 900 ng/kg): fall (p<0.001) followed by significant rise
effect of ET-1 treatment on clonidine-induced fall in MAP ([1]; ET-1 100, 300 and 900 ng/kg i.v., clonidine 10 μg/kg i.v., dose-dependent manner): significantly attenuated
effect of ET-1 treatment on centhaquin-induced fall in MAP ([1]; ET-1 100, 300 and 900 ng/kg, centhaquin 0.15 mg/kg i.v., dose-dependent manner): significantly attenuated
attenuation of centhaquin-induced decrease in MAP ([1]; ET-1 100 and 300 ng/kg + centhaquin 0.15 mg/kg): small statistically insignificant attenuation
attenuation of clonidine induced fall in PP ([1]; ET-1 300 and 900 ng/kg + clonidine 10 μg/kg): showed attenuation, but did not reach the level of statistical significance
effect of ET-1 pretreatment on contractile response of clonidine ([3]; ET-1 4 nM pretreated aorta): significantly potentiated

Molecule: COc1cc2nc(N3CCN(C(=O)c4ccco4)CC3)nc(N)c2cc1OC [Prazosin]
effect of prazosin on changes produced in MAP by centhaquin in ET-1 treated rats [1, 11]: completely (p<0.01) blocked
effect of prazosin on decrease in HR induced by centhaquin in ET-1 treated rats [1, 11]: significantly (p<0.05) attenuated
effect of prazosin on decrease in PP induced by centhaquin in ET-1 treated rats [1, 11]: significantly (p<0.001) attenuated
effect of prazosin on changes in MAP and HR by centhaquin in vehicle treated rats ([1]; prazosin 0.1 mg/kg + centhaquin 0.15 mg/kg): blocked

Molecule: cyclo [D-α-aspartyl-3-[(4-phenylpiperazin-1-yl) carbonyl]-L-alanyl-L-α-aspartyl-D-2-(2-thienyl)glycyl-L-leu-Cyl-D-tryptOphyljdisodium salt [TAK-044]
decrease in HR after centhaquin in antagonist treated rats, compared to baseline [1]: 21.94%
decrease in MAP after centhaquin in antagonist treated rats, compared to baseline [1]: 32.31%
decrease in PP after centhaquin in antagonist treated rats, compared to baseline [1]: 46.49%
potentiation of centhaquin hypotensive effect compared to vehicle treated rats [1]: 16.48%
potentiation of centhaquin-induced decrease in HR (bradycardia) compared to vehicle treated rats [1]: 12.74%
maximum decrease in PP after clonidine in antagonist treated rats, compared to baseline [1]: 52.72%
reduction in MAP after clonidine in antagonist treated rats, compared with the baseline [1]: 36.59%
change in MAP, PP and HR, antagonist alone [1]: no significant change
Bradycardia, Centhaquin, percent change [1]: (12.74%)
Decrease in pulse pressure, Centhaquin, percent change [1]: (23.83%)
Hypotension, Centhaquin, percent change [1]: (16.48%)

Molecule: Cc1noc(NS(=O)(=O)c2cccc3c(N(C)C)cccc23)c1C [BMS-182874, (5-Dimethylamino)-N-(3,4-dimethyl-5-isoxazolyl)-1-naphthalene sulfonamide hydrochloride]
potentiation of centhaquin induced decrease in HR, more than that produced by TAK-044 treatment ([1]; BMS-182874 9 mg/kg versus TAK-044 1 mg/kg, centhaquin 0.15 mg/kg): 18.63%
decrease in HR after centhaquin in antagonist treated rats, compared to baseline [1]: 35.72%
decrease in MAP after centhaquin in antagonist treated rats, compared to baseline [1]: 43.46%
decrease in PP after centhaquin in antagonist treated rats, compared to baseline [1]: 49.68%
potentiation of centhaquin hypotensive effect compared to vehicle treated rats [1]: 30.67%
potentiation of centhaquin-induced decrease in HR (bradycardia) compared to vehicle treated rats [1]: 29.00%
maximum decrease in PP after clonidine in antagonist treated rats, compared to baseline [1]: 44.97%
reduction in MAP after clonidine in antagonist treated rats, compared with the baseline [1]: 29.44%
change in MAP, PP and HR, antagonist alone [1]: no significant change
Bradycardia, Centhaquin, percent change [1]: (29.00%)
Decrease in pulse pressure, Centhaquin, percent change [1]: (28.72%)
Hypotension, Centhaquin, percent change [1]: (30.67%)
